We go through four molecules from the NIST ThermoML archive (doi:10.1016/j.jct.2007.03.008).

For series [1] the following is noted: Liquid; for mass density: 101.33 kPa.
Series [2] can be described thus: refractive index (Na D-line) (dimensionless). As to conditions: 298.15 K; 101.33 kPa; Liquid; Standard Abbe refractometry.

Molecules are shown by their SMILES. ± gives the expanded uncertainty stated by the source.

By mass density is commonly meant the mass of a sample divided by its volume. As usually defined, the vapor or sublimation pressure is the equilibrium pressure above the liquid or solid. Usually refractive index stands for a measure of how strongly the sample bends light. As to `ClCCCCCl` [1,4-dichlorobutane], in series [1] (298.15 K), the mass density came out at 1132.8 ± 0.2 kg/m3. The “vapor or sublimation pressure” value in series [1] (298.15 K) is 0.99 ± 0.16 kPa; in series [1] (308.15 K), 1.39 ± 0.16 kPa; in series [1] (318.15 K), 2.13 ± 0.16 kPa. For the same molecule, the refractive index in series [2] was found to be 1.4519 ± 0.0007.

For `O=C1CCCC1` [cyclopentanone], the mass density in series [1] (298.15 K) is 945.3 ± 0.2 kg/m3. For the same molecule, the “vapor or sublimation pressure” value in series [1] (298.15 K) is reported as 1.71 ± 0.32 kPa; in series [1] (308.15 K), 2.8 ± 0.33 kPa; in series [1] (318.15 K), 4.4 ± 0.34 kPa. In addition, the refractive index in series [2] is listed as 1.4347 ± 0.0007.

On to `ClCCCCl` [1,3-dichloropropane], for which the mass density in series [1] (298.15 K) amounted to 1181.4 ± 0.3 kg/m3. The “vapor or sublimation pressure” value in series [1] (298.15 K) came out at 2.75 ± 0.16 kPa; in series [1] (308.15 K) it was 4.48 ± 0.17 kPa; in series [1] (318.15 K), 6.87 ± 0.18 kPa. Further, the refractive index in series [2] amounted to 1.4459 ± 0.0007.

Regarding `CCCCCl` [1-chlorobutane], the mass density in series [1] (298.15 K, Vibrating tube method) turned out to be 880.9 ± 0.1 kg/m3. Moreover, the results for the “vapor or sublimation pressure” value in series [1] (298.15 K), in series [1] (308.15 K) and in series [1] (318.15 K) were 13.7 ± 0.4 kPa, 21.32 ± 0.44 kPa and 31.86 ± 0.51 kPa, respectively. In addition, in series [2], the refractive index was 1.3991 ± 0.0007.
